Values of other authors as cited in paper PMC13468302, “African Polyherbal Formulations for Type 2 Diabetes: A Systematic Review and Meta-Analysis of Efficacy, Mechanisms, and Therapeutic Potential” (Plants, 2026).

How the values were obtained:
[1] = test system: HFD + STZ (45 mg/kg)-induced diabetic Sprague Dawley rats; conditions: UL 100 mg/kg, metformin 50 mg/kg, UL+Met 100/50 mg/kg, insulin 2U; 28 days; ref [44]
[2] = test system: alloxan-induced diabetic Wistar rats; conditions: combination at 400 mg/kg; 21 days; ref [49]
[3] = test system: alloxan-induced diabetic Wistar rats; conditions: 300 mg/kg each orally, 21 days; ref [53]

Compound | fasting glucose change [1] | serum glucose reduction [2] | glucose reduction [3]
CN(C)C(=N)N=C(N)N [metformin] | −15.34% | – | –
COc1ccc(Cl)cc1C(=O)NCCc1ccc(S(=O)(=O)NC(=O)NC2CCCCC2)cc1 [glibenclamide] | – | 56.5% | –
insulin | −35.65% | – | 69.1%
